Source: the CheMixHub viscosity set
“And” between values parts separate entries of the source, which are not always exact repeats. Equal entries are not always repeated. ± gives the uncertainty stated by the source.

Assay: xn = mol fraction of the nth substance listed

**Q.** For `NCCOCCO` + O, which viscosity (298.15 K, 101.33 kPa, x1 = 0.0552) is on record?
**A.** 2.4 ± 0.027 mPa·s

**Q.** And the viscosity (298.15 K, 101.33 kPa, x1 = 0.1002)?
**A.** 3.874 ± 0.037 mPa·s

**Q.** What about the viscosity (298.15 K, 101.33 kPa, x1 = 0.1447) of the same compound?
**A.** 6.344 ± 0.072 mPa·s

**Q.** And the viscosity (298.15 K, 101.33 kPa, x1 = 0.2249)?
**A.** 11.4 ± 0.097 mPa·s

**Q.** What about the viscosity (298.15 K, 101.33 kPa, x1 = 0.2997) of the same compound?
**A.** 16.21 ± 0.12 mPa·s

**Q.** What about the viscosity (298.15 K, 101.33 kPa, x1 = 0.3995) of the same compound?
**A.** 21.35 ± 0.15 mPa·s

**Q.** And the viscosity (298.15 K, 101.33 kPa, x1 = 0.5392)?
**A.** 25.2 ± 0.17 mPa·s

**Q.** And the viscosity (298.15 K, 101.33 kPa, x1 = 0.6075)?
**A.** 26.8 ± 0.17 mPa·s

**Q.** What about the viscosity (298.15 K, 101.33 kPa, x1 = 0.7021) of the same compound?
**A.** 27.72 ± 0.18 mPa·s

**Q.** And the viscosity (298.15 K, 101.33 kPa, x1 = 0.8071)?
**A.** 27.7 ± 0.18 mPa·s

**Q.** What about the viscosity (298.15 K, 101.33 kPa, x1 = 0.9024) of the same compound?
**A.** 27.4 ± 0.18 mPa·s

**Q.** What about the viscosity (313.15 K, 101.33 kPa, x1 = 0.0552) of the same compound?
**A.** 1.452 ± 0.02 mPa·s

**Q.** What about the viscosity (313.15 K, 101.33 kPa, x1 = 0.1002) of the same compound?
**A.** 2.419 ± 0.027 mPa·s

**Q.** And the viscosity (313.15 K, 101.33 kPa, x1 = 0.1447)?
**A.** 3.715 ± 0.036 mPa·s

**Q.** What about the viscosity (313.15 K, 101.33 kPa, x1 = 0.2249) of the same compound?
**A.** 6.182 ± 0.071 mPa·s

**Q.** And the viscosity (313.15 K, 101.33 kPa, x1 = 0.2997)?
**A.** 8.343 ± 0.082 mPa·s

**Q.** And the viscosity (313.15 K, 101.33 kPa, x1 = 0.3995)?
**A.** 10.7 ± 0.094 mPa·s

**Q.** And the viscosity (313.15 K, 101.33 kPa, x1 = 0.5392)?
**A.** 12.28 ± 0.1 mPa·s

**Q.** What about the viscosity (313.15 K, 101.33 kPa, x1 = 0.6075) of the same compound?
**A.** 13.19 ± 0.11 mPa·s

**Q.** What about the viscosity (313.15 K, 101.33 kPa, x1 = 0.7021) of the same compound?
**A.** 13.65 ± 0.11 mPa·s

**Q.** And the viscosity (313.15 K, 101.33 kPa, x1 = 0.8071)?
**A.** 13.76 ± 0.11 mPa·s

**Q.** And the viscosity (313.15 K, 101.33 kPa, x1 = 0.9024)?
**A.** 13.65 ± 0.11 mPa·s

**Q.** And the viscosity (323.15 K, 101.33 kPa, x1 = 0.0552)?
**A.** 1.16 ± 0.018 mPa·s

**Q.** What about the viscosity (323.15 K, 101.33 kPa, x1 = 0.1002) of the same compound?
**A.** 1.857 ± 0.023 mPa·s

**Q.** What about the viscosity (323.15 K, 101.33 kPa, x1 = 0.1447) of the same compound?
**A.** 2.737 ± 0.029 mPa·s

**Q.** What about the viscosity (323.15 K, 101.33 kPa, x1 = 0.2249) of the same compound?
**A.** 4.438 ± 0.041 mPa·s

**Q.** And the viscosity (323.15 K, 101.33 kPa, x1 = 0.2997)?
**A.** 5.773 ± 0.069 mPa·s

**Q.** What about the viscosity (323.15 K, 101.33 kPa, x1 = 0.3995) of the same compound?
**A.** 7.293 ± 0.077 mPa·s

**Q.** And the viscosity (323.15 K, 101.33 kPa, x1 = 0.5392)?
**A.** 8.273 ± 0.081 mPa·s

**Q.** What about the viscosity (323.15 K, 101.33 kPa, x1 = 0.6075) of the same compound?
**A.** 8.903 ± 0.085 mPa·s

**Q.** And the viscosity (323.15 K, 101.33 kPa, x1 = 0.7021)?
**A.** 9.182 ± 0.086 mPa·s

**Q.** And the viscosity (323.15 K, 101.33 kPa, x1 = 0.8071)?
**A.** 9.315 ± 0.087 mPa·s

**Q.** What about the viscosity (323.15 K, 101.33 kPa, x1 = 0.9024) of the same compound?
**A.** 9.257 ± 0.086 mPa·s

**Q.** With `O=C([O-])CC(O)(CC(=O)[O-])C(=O)[O-].[NH4+].[NH4+].[NH4+]` + O as the compound, how does the viscosity (298.15 K, 101 kPa, x1 = 0.004) read?
**A.** 0.9957 ± 0.031 mPa·s

**Q.** What about the viscosity (298.15 K, 101 kPa, x1 = 0.007) of the same compound?
**A.** 1.13 ± 0.032 mPa·s

**Q.** What about the viscosity (298.15 K, 101 kPa, x1 = 0.01) of the same compound?
**A.** 1.283 ± 0.032 mPa·s and 1.49 ± 0.033 mPa·s

**Q.** And the viscosity (308.15 K, 101 kPa, x1 = 0.004)?
**A.** 0.814 ± 0.031 mPa·s

**Q.** What about the viscosity (308.15 K, 101 kPa, x1 = 0.007) of the same compound?
**A.** 0.923 ± 0.031 mPa·s

**Q.** And the viscosity (308.15 K, 101 kPa, x1 = 0.01)?
**A.** 1.048 ± 0.031 mPa·s and 1.211 ± 0.032 mPa·s

**Q.** What about the viscosity (318.15 K, 101 kPa, x1 = 0.004) of the same compound?
**A.** 0.685 ± 0.031 mPa·s

**Q.** And the viscosity (318.15 K, 101 kPa, x1 = 0.007)?
**A.** 0.7741 ± 0.031 mPa·s

**Q.** What about the viscosity (318.15 K, 101 kPa, x1 = 0.01) of the same compound?
**A.** 0.8784 ± 0.031 mPa·s and 1.01 ± 0.031 mPa·s

**Q.** Which results are given for `O=S(=O)([N-]S(=O)(=O)C(F)(F)F)C(F)(F)F.OCCNCCO.[Li+]` + O?
**A.** viscosity (313.15 K, 101 kPa, x1 = 0.03): 2.3 ± 0.15 mPa·s; viscosity (313.15 K, 101 kPa, x1 = 0.0601): 4.57 ± 0.34 mPa·s; viscosity (313.15 K, 101 kPa, x1 = 0.0999): 13.16 ± 0.96 mPa·s; viscosity (313.15 K, 101 kPa, x1 = 0.1922): 61.51 ± 2.1 mPa·s; viscosity (313.15 K, 101 kPa, x1 = 0.2941): 156.6 ± 12 mPa·s; viscosity (313.15 K, 101 kPa, x1 = 0.4028): 299.2 ± 36 mPa·s; viscosity (313.15 K, 101 kPa, x1 = 0.4989): 451.2 ± 67 mPa·s; viscosity (313.15 K, 101 kPa, x1 = 0.5999): 629.9 ± 110 mPa·s; viscosity (313.15 K, 101 kPa, x1 = 0.7015): 835.5 ± 160 mPa·s; viscosity (313.15 K, 101 kPa, x1 = 0.803): 1078 ± 220 mPa·s; viscosity (313.15 K, 101 kPa, x1 = 0.9011): 1370 ± 310 mPa·s; viscosity (318.15 K, 101 kPa, x1 = 0.03): 1.83 ± 0.12 mPa·s; viscosity (318.15 K, 101 kPa, x1 = 0.0601): 3.78 ± 0.27 mPa·s; viscosity (318.15 K, 101 kPa, x1 = 0.0999): 10.06 ± 0.65 mPa·s; viscosity (318.15 K, 101 kPa, x1 = 0.1922): 40.94 ± 1.4 mPa·s; viscosity (318.15 K, 101 kPa, x1 = 0.2941): 98.53 ± 4.9 mPa·s; viscosity (318.15 K, 101 kPa, x1 = 0.4028): 187.7 ± 17 mPa·s; viscosity (318.15 K, 101 kPa, x1 = 0.4989): 285 ± 34 mPa·s; viscosity (318.15 K, 101 kPa, x1 = 0.5999): 408.1 ± 58 mPa·s; viscosity (318.15 K, 101 kPa, x1 = 0.7015): 557.5 ± 91 mPa·s; viscosity (318.15 K, 101 kPa, x1 = 0.803): 736.7 ± 130 mPa·s; viscosity (318.15 K, 101 kPa, x1 = 0.9011): 952.3 ± 190 mPa·s; viscosity (323.15 K, 101 kPa, x1 = 0.03): 1.52 ± 0.1 mPa·s; viscosity (323.15 K, 101 kPa, x1 = 0.0601): 3.28 ± 0.21 mPa·s; viscosity (323.15 K, 101 kPa, x1 = 0.0999): 7.95 ± 0.45 mPa·s; viscosity (323.15 K, 101 kPa, x1 = 0.1922): 28.08 ± 0.93 mPa·s; viscosity (323.15 K, 101 kPa, x1 = 0.2941): 65.24 ± 1.9 mPa·s; viscosity (323.15 K, 101 kPa, x1 = 0.4028): 123.7 ± 7.8 mPa·s; viscosity (323.15 K, 101 kPa, x1 = 0.4989): 192.2 ± 18 mPa·s; viscosity (323.15 K, 101 kPa, x1 = 0.5999): 281.1 ± 33 mPa·s; viscosity (323.15 K, 101 kPa, x1 = 0.7015): 393.6 ± 55 mPa·s; viscosity (323.15 K, 101 kPa, x1 = 0.803): 530 ± 85 mPa·s; viscosity (323.15 K, 101 kPa, x1 = 0.9011): 694.7 ± 120 mPa·s

**Q.** Which viscosity (298.15 K, 101 kPa, x1 = 9e-05) does the source give for `O=S(=O)([O-])c1ccccc1.[Na+]` + O here?
**A.** 0.898 ± 0.009 mPa·s

**Q.** What about the viscosity (298.15 K, 101 kPa, x1 = 0.00018) of the same compound?
**A.** 0.899 ± 0.009 mPa·s

**Q.** And the viscosity (298.15 K, 101 kPa, x1 = 0.0009)?
**A.** 0.915 ± 0.009 mPa·s

**Q.** And the viscosity (298.15 K, 101 kPa, x1 = 0.0018)?
**A.** 0.932 ± 0.009 mPa·s

**Q.** And the viscosity (298.15 K, 101 kPa, x1 = 0.00448)?
**A.** 0.98 ± 0.01 mPa·s

**Q.** And the viscosity (298.15 K, 101 kPa, x1 = 0.00893)?
**A.** 1.073 ± 0.011 mPa·s

**Q.** And the viscosity (298.15 K, 101 kPa, x1 = 0.0133)?
**A.** 1.17 ± 0.012 mPa·s

**Q.** What about the viscosity (298.15 K, 101 kPa, x1 = 0.0177) of the same compound?
**A.** 1.273 ± 0.013 mPa·s

**Q.** What about the viscosity (318.15 K, 101 kPa, x1 = 9e-05) of the same compound?
**A.** 0.598 ± 0.006 mPa·s

**Q.** And the viscosity (318.15 K, 101 kPa, x1 = 0.00018)?
**A.** 0.599 ± 0.006 mPa·s

**Q.** And the viscosity (318.15 K, 101 kPa, x1 = 0.0009)?
**A.** 0.609 ± 0.006 mPa·s

**Q.** What about the viscosity (318.15 K, 101 kPa, x1 = 0.0018) of the same compound?
**A.** 0.619 ± 0.006 mPa·s

**Q.** What about the viscosity (318.15 K, 101 kPa, x1 = 0.00448) of the same compound?
**A.** 0.648 ± 0.006 mPa·s

**Q.** And the viscosity (318.15 K, 101 kPa, x1 = 0.00893)?
**A.** 0.705 ± 0.007 mPa·s

**Q.** What about the viscosity (318.15 K, 101 kPa, x1 = 0.0133) of the same compound?
**A.** 0.762 ± 0.007 mPa·s

**Q.** And the viscosity (318.15 K, 101 kPa, x1 = 0.0177)?
**A.** 0.825 ± 0.008 mPa·s
